In patent publication US20190125888A1, “TARGETED CONJUGATES AND PARTICLES AND FORMULATIONS THEREOF” (priority 2015, published 2019):
Like-named read-outs stand apart in the source and are kept apart here. Where a SMILES comes first, the peptide text is derived from it. Bridges are numbered along the chain shown (N, C = ends). [ ]: non-standard residue; d: D form. The star is where a group is joined. NH(CH2)2SS(DM1) = COc1cc2cc(c1Cl)N(C)C(=O)C[C@H](OC(=O)[C@H](C)N(C)C(=O)CCSSCCN*)[C@]1(C)O[C@H]1[C@H](C)[C@@H]1C[C@@](O)(NC(=O)O1)[C@H](OC)/C=C/C=C(\C)C2; X1 = COc1cc2cc(c1Cl)N(C)C(=O)C[C@H](OC(=O)[C@H](C)N(C)C(=O)CCS*)[C@]1(C)O[C@H]1[C@H](C)[C@@H]1C[C@@](O)(NC(=O)O1)[C@H](OC)/C=C/C=C(\C)C2; Octanoyl = CCCCCCCC(=O)*

What was measured:
[1] = Ligand charge of maytansinoid conjugates; format: physicochemical
[2] = Chrom LogP of maytansinoid conjugates; format: physicochemical
[3] = tested on: NCI-H524 (ATCC) human lung cancer cells; format: cell-based
Procedure, shortened: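 NCI-H524 cells (5,000/well) exposed to conjugates for 6 hours, washed, then grown a further 66 hours; ten-point threefold dilutions from 20 μM. Proliferation by CellTiter-Glo versus vehicle; IC50 by four-parameter nonlinear regression, measured with and without octreotide competition.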

human SSTR2 = human SSTR2 (Homo sapiens, UniProt P30874); test: Radioligand-receptor binding assay, [125I] somatostatin, membranes from SSTR2 expressing CHO-K1 cells
Description: These conjugates were also assessed in an in vitro assay evaluating binding to the somatostatin receptor 2 (SSTR2). A radioligand-receptor binding assay was conducted at Eurofins Panlabs (Taiwan) to determine the affinity of conjugates described herein to the SSTR2. The assay measures binding of radiolabeled ligand, [^125I] labeled somatostatin, to human SSTR2 using membrane preparations from SSTR2 expressing CHO-K1 cells. Membranes were incubated with radiolabeled somatostatin (0.03 nM) in the presence of conjugate/compound starting at a dose of 10 uM using 6× serial dilutions to obtain a 10-pt curve. After a four hour incubation, membranes were filtered and washed 3× and counted to determine the remaining [^125I] somatostatin bound to the receptor. IC50 values were determined by a non-linear, least squares regression analysis using MathIQ™ (ID Business Solutions Ltd., UK).

[4] = read-out: H524 IC50 6 h, 6 hours treatment, further 66 hours incubation
[5] = read-out: H524 IC50 with 100 μM octreotide 6 h, with 100 μM octreotide competition, 6 h treatment

Sequence of human SSTR2 (P30874 whole entry): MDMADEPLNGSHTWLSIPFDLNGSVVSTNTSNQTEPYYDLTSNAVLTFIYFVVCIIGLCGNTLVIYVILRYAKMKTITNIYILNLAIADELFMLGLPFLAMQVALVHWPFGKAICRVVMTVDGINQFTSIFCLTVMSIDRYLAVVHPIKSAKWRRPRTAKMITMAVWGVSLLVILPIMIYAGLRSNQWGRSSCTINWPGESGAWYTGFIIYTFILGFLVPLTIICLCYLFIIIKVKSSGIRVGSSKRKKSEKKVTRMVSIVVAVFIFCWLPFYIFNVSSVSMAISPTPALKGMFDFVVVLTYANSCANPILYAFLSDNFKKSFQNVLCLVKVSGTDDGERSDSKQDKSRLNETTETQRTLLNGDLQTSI

With `COc1cc2cc(c1Cl)N(C)C(=O)C[C@H](OC(=O)[C@H](C)N(C)C(=O)CCSSC[C@H](NC(=O)[C@@H]1CSSC[C@H](NC(=O)[C@@H](Cc3ccccc3)NS(C)(=O)=O)C(=O)N[C@@H](Cc3ccc(O)cc3)C(=O)N[C@H](Cc3c[nH]c4ccccc34)C(=O)N[C@@H](CCCCN)C(=O)N[C@@H]([C@@H](C)O)C(=O)N1)C(N)=O)[C@]1(C)O[C@H]1[C@H](C)[C@@H]1C[C@@](O)(NC(=O)O1)[C@H](OC)/C=C/C=C(\C)C2` [Conjugate 34] the Ligand charge [1] was “+1”, the chromatographic logP [2] was 2.57 and the IC50 [3, 4] was 13 nM. The IC50 [3, 5] was 83 nM and the Ki (human SSTR2) was 0.18 nM.

With `COc1cc2cc(c1Cl)N(C)C(=O)C[C@H](OC(=O)[C@H](C)N(C)C(=O)CCSSC(C)(C)[C@H](NC(=O)[C@@H]1CSSC[C@H](NC(=O)[C@H](N)Cc3ccccc3)C(=O)N[C@@H](Cc3ccc(O)cc3)C(=O)N[C@H](Cc3c[nH]c4ccccc34)C(=O)N[C@@H](CCCCNC(=O)NCCCCCCN)C(=O)N[C@@H]([C@@H](C)O)C(=O)N1)C(N)=O)[C@]1(C)O[C@H]1[C@H](C)[C@@H]1C[C@@](O)(NC(=O)O1)[C@H](OC)/C=C/C=C(\C)C2` [Conjugate 57] the Ligand charge [1] was “+2”, the chromatographic logP [2] was 2.12 and the IC50 [3, 4] was 408 nM. It also gave an IC50 [3, 5] of 652 nM and a Ki (human SSTR2) of 69 nM.

In the case of `COc1cc2cc(c1Cl)N(C)C(=O)C[C@H](OC(=O)[C@H](C)N(C)C(=O)CCSSC(C)(C)[C@H](NC(=O)[C@@H]1CSSC[C@H](NC(=O)[C@@H](Cc3ccccc3)NS(=O)(=O)Cc3ccc(C(F)(F)F)cc3)C(=O)N[C@@H](Cc3ccc(O)cc3)C(=O)N[C@H](Cc3c[nH]c4ccccc34)C(=O)N[C@@H](CCCCN)C(=O)N[C@@H]([C@@H](C)O)C(=O)N1)C(N)=O)[C@]1(C)O[C@H]1[C@H](C)[C@@H]1C[C@@](O)(NC(=O)O1)[C@H](OC)/C=C/C=C(\C)C2` [Conjugate 14], the Ligand charge [1] is reported as “+1”, the chromatographic logP [2] is reported as 3.23 and the IC50 [3, 4] is reported as 14 nM. The IC50 [3, 5] was 331 nM and the Ki (human SSTR2) was 0.041 nM.

For `COc1cc2cc(c1Cl)N(C)C(=O)C[C@H](OC(=O)[C@H](C)N(C)C(=O)CCSSC[C@H](NC(=O)[C@@H]1CSSC[C@H](NC(=O)[C@@H](Cc3ccccc3)NC(=O)NCCC(F)(F)C(F)(F)C(F)(F)C(F)(F)C(F)(F)C(F)(F)C(F)(F)C(F)(F)F)C(=O)N[C@@H](Cc3ccc(O)cc3)C(=O)N[C@H](Cc3c[nH]c4ccccc34)C(=O)N[C@@H](CCCCN)C(=O)N[C@@H]([C@@H](C)O)C(=O)N1)C(N)=O)[C@]1(C)O[C@H]1[C@H](C)[C@@H]1C[C@@](O)(NC(=O)O1)[C@H](OC)/C=C/C=C(\C)C2` [Conjugate 40], the Ligand charge [1] was “+1”, the chromatographic logP [2] was 4 and the Ki (human SSTR2) was 3.51 nM.

For `COc1cc2cc(c1Cl)N(C)C(=O)C[C@H](OC(=O)[C@H](C)N(C)C(=O)CCC(C)(C)SSC[C@H](NC(=O)[C@@H]1CSSC[C@H](NC(=O)[C@H](N)Cc3ccccc3)C(=O)N[C@@H](Cc3ccc(O)cc3)C(=O)N[C@H](Cc3c[nH]c4ccccc34)C(=O)N[C@@H](CCCCN)C(=O)N[C@@H]([C@@H](C)O)C(=O)N1)C(N)=O)[C@]1(C)O[C@H]1[C@H](C)[C@@H]1C[C@@](O)(NC(=O)O1)[C@H](OC)/C=C/C=C(\C)C2` [Conjugate 4], the Ligand charge [1] was “+2”, the chromatographic logP [2] was 2.21 and the IC50 [3, 4] was 78 nM. It also gave an IC50 [3, 5] of 348 nM and a Ki (human SSTR2) of 0.075 nM.

For `CCNC(=O)N[C@H](Cc1ccccc1)C(=O)N[C@H]1CSSC[C@@H](C(=O)N[C@H](C(N)=O)C(C)(C)SSCCC(=O)N(C)[C@@H](C)C(=O)O[C@H]2CC(=O)N(C)c3cc(cc(OC)c3Cl)C/C(C)=C/C=C/[C@@H](OC)[C@@]3(O)C[C@H](OC(=O)N3)[C@@H](C)[C@@H]3O[C@@]23C)NC(=O)[C@H]([C@@H](C)O)NC(=O)[C@H](CCCCN)NC(=O)[C@@H](Cc2c[nH]c3ccccc23)NC(=O)[C@H](Cc2ccc(O)cc2)NC1=O` [Conjugate 13], the Ligand charge [1] was “+1”, the chromatographic logP [2] was 2.67 and the IC50 [3, 4] was 6.5 nM. For the same compound, the IC50 [3, 5] was 340 nM and the Ki (human SSTR2) was 0.018 nM.

With `COc1cc2cc(c1Cl)N(C)C(=O)C[C@H](OC(=O)[C@H](C)N(C)C(=O)CCSSC[C@H](NC(=O)[C@@H]1CSSC[C@H](NC(=O)[C@@H](Cc3ccccc3)NC(=O)Nc3ccccc3)C(=O)N[C@@H](Cc3ccc(O)cc3)C(=O)N[C@H](Cc3c[nH]c4ccccc34)C(=O)N[C@@H](CCCCN)C(=O)N[C@@H]([C@@H](C)O)C(=O)N1)C(N)=O)[C@]1(C)O[C@H]1[C@H](C)[C@@H]1C[C@@](O)(NC(=O)O1)[C@H](OC)/C=C/C=C(\C)C2` [Conjugate 42] the Ligand charge [1] was “+1”, the chromatographic logP [2] was 2.87 and the IC50 [3, 4] was 1.7 nM. For the same compound, the IC50 [3, 5] was 115 nM and the Ki (human SSTR2) was 0.042 nM.

For `CCCCCCCC(=O)N[C@H](Cc1ccccc1)C(=O)N[C@H]1CSSC[C@@H](C(=O)NCCSSCCC(=O)N(C)[C@@H](C)C(=O)O[C@H]2CC(=O)N(C)c3cc(cc(OC)c3Cl)C/C(C)=C/C=C/[C@@H](OC)[C@@]3(O)C[C@H](OC(=O)N3)[C@@H](C)[C@@H]3O[C@@]23C)NC(=O)[C@H]([C@@H](C)O)NC(=O)[C@H](CCCCN)NC(=O)[C@@H](Cc2c[nH]c3ccccc23)NC(=O)[C@H](Cc2ccc(O)cc2)NC1=O` [Conjugate 21] (Octanoyl-[dF]CY[dW]KTC-{NH(CH2)2SS(DM1)}; disulfide 2-7), the Ligand charge [1] was “+1”, the chromatographic logP [2] was 3.48 and the Ki (human SSTR2) was 1.29 nM.

For `COc1cc2cc(c1Cl)N(C)C(=O)C[C@H](OC(=O)[C@H](C)N(C)C(=O)CCSSC[C@H](NC(=O)[C@@H]1CSSC[C@H](NC(=O)[C@H](N)Cc3ccccc3)C(=O)N[C@@H](Cc3ccc(O)cc3)C(=O)N[C@H](Cc3c[nH]c4ccccc34)C(=O)N[C@@H](CCCCNC(=O)NCCCCCCN)C(=O)N[C@@H]([C@@H](C)O)C(=O)N1)C(N)=O)[C@]1(C)O[C@H]1[C@H](C)[C@@H]1C[C@@](O)(NC(=O)O1)[C@H](OC)/C=C/C=C(\C)C2` [Conjugate 56], the Ligand charge [1] was “+2”, the chromatographic logP [2] was 1.92 and the IC50 [3, 4] was 246 nM. For the same compound, the IC50 [3, 5] was 361 nM and the Ki (human SSTR2) was 1900 nM.

In the case of `COc1cc2cc(c1Cl)N(C)C(=O)C[C@H](OC(=O)[C@H](C)N(C)C(=O)CCSSC[C@H](NC(=O)[C@@H]1CSSC[C@H](NC(=O)[C@@H](Cc3ccccc3)NC(=O)NCCC(c3ccccc3)c3ccccc3)C(=O)N[C@@H](Cc3ccc(O)cc3)C(=O)N[C@H](Cc3c[nH]c4ccccc34)C(=O)N[C@@H](CCCCN)C(=O)N[C@@H]([C@@H](C)O)C(=O)N1)C(N)=O)[C@]1(C)O[C@H]1[C@H](C)[C@@H]1C[C@@](O)(NC(=O)O1)[C@H](OC)/C=C/C=C(\C)C2` [Conjugate 41], the Ligand charge [1] is reported as “+1”, the chromatographic logP [2] is reported as 3.29 and the IC50 [3, 4] is reported as 41 nM. It also gave an IC50 [3, 5] of 97 nM and a Ki (human SSTR2) of 0.5 nM.

For `COc1cc2cc(c1Cl)N(C)C(=O)C[C@H](OC(=O)[C@H](C)N(C)C(=O)CCSSC[C@H](NC(=O)[C@@H]1CSSC[C@H](NC(=O)[C@H](N)Cc3c[nH]c4ccccc34)C(=O)N[C@@H](Cc3ccc(O)cc3)C(=O)N[C@H](Cc3c[nH]c4ccccc34)C(=O)N[C@@H](CCCCN)C(=O)N[C@@H]([C@@H](C)O)C(=O)N1)C(N)=O)[C@]1(C)O[C@H]1[C@H](C)[C@@H]1C[C@@](O)(NC(=O)O1)[C@H](OC)/C=C/C=C(\C)C2` [Conjugate 24] (H-[dW]CY[dW]KTCC(X1)-NH2; disulfide 2-7), the Ligand charge [1] was “+2”, the chromatographic logP [2] was 2.03 and the IC50 [3, 4] was 140 nM. It also gave an IC50 [3, 5] of 214 nM.

For `COc1cc2cc(c1Cl)N(C)C(=O)C[C@H](OC(=O)[C@H](C)N(C)C(=O)CCSSC[C@H](NC(=O)[C@@H]1CSSC[C@H](NC(=O)[C@@H](Cc3ccccc3)NC(=O)NCc3ccc(C(F)(F)F)cc3)C(=O)N[C@@H](Cc3ccc(O)cc3)C(=O)N[C@H](Cc3c[nH]c4ccccc34)C(=O)N[C@@H](CCCCN)C(=O)N[C@@H]([C@@H](C)O)C(=O)N1)C(N)=O)[C@]1(C)O[C@H]1[C@H](C)[C@@H]1C[C@@](O)(NC(=O)O1)[C@H](OC)/C=C/C=C(\C)C2` [Conjugate 37], the Ligand charge [1] was “+1”, the chromatographic logP [2] was 3.07 and the IC50 [3, 4] was 3.7 nM. For the same compound, the IC50 [3, 5] was 93 nM and the Ki (human SSTR2) was 0.16 nM.

In the case of `CCNC(=O)[C@@H](NC(=O)[C@@H]1CSSC[C@H](NC(=O)[C@@H](Cc2ccccc2)NCCCSSCCC(=O)N(C)[C@@H](C)C(=O)O[C@@H]2CC(=O)N(C)c3cc(cc(OC)c3Cl)C/C(C)=C/C=C/[C@@H](OC)[C@@]3(O)C[C@H](OC(=O)N3)[C@@H](C)[C@@H]3O[C@@]23C)C(=O)N[C@@H](Cc2ccc(O)cc2)C(=O)N[C@H](Cc2c[nH]c3ccccc23)C(=O)N[C@@H](CCCCN)C(=O)N[C@@H]([C@@H](C)O)C(=O)N1)[C@@H](C)O` [Conjugate 50], the Ligand charge [1] is reported as “+2”, the chromatographic logP [2] is reported as 2.32 and the IC50 [3, 4] is reported as 43 nM. The IC50 [3, 5] was 149 nM.

For `CCCC(=O)N[C@H](Cc1ccccc1)C(=O)N[C@H]1CSSC[C@@H](C(=O)N[C@H](C(=O)NCCSSCCC(=O)N(C)[C@@H](C)C(=O)O[C@H]2CC(=O)N(C)c3cc(cc(OC)c3Cl)C/C(C)=C/C=C/[C@@H](OC)[C@@]3(O)C[C@H](OC(=O)N3)[C@@H](C)[C@@H]3O[C@@]23C)[C@@H](C)O)NC(=O)[C@H]([C@@H](C)O)NC(=O)[C@H](CCCCN)NC(=O)[C@@H](Cc2c[nH]c3ccccc23)NC(=O)[C@H](Cc2ccc(O)cc2)NC1=O` [Conjugate 19], the Ligand charge [1] was “+1”, the chromatographic logP [2] was 2.88 and the IC50 [3, 4] was 6.9 nM. For the same compound, the IC50 [3, 5] was 111 nM.
